Measurements from patent US10772893B2, “2-(morpholin-4-yl)-1,7-naphthyridines” (BAYER PHARMA AKTIENGESELLSCHAFT, priority 2014, dated 2020).

Test system: HeLa cells
Assay: Proliferation assay, crystal violet staining
Settings: Homo sapiens, 96 h, read-out: Inhibition of HeLa cell proliferation
Experimental: After 24 hours, the cells of one plate (zero plate) were dyed with crystal violet (see below), whereas the medium of the other plates was replaced with fresh culture medium (200 μl) to which the test substances were added in various concentrations (0 μM, and also in the range of 0.001-10 μM; the final concentration of the solvent dimethyl sulphoxide was 0.1 or 0.5%). The cells were incubated for 4 days in the presence of the test substances. […] After washing the fixed cells three times with water, the plates were dried at room temperature. The cells were stained by adding 100 μl/measurement point of a 0.1% strength crystal violet solution (pH adjusted to pH 3 by adding acetic acid). After washing the cells three times with water, the plates were dried at room temperature. The dye was dissolved by adding 100 μl/measurement point of a 10% strength acetic acid solution. […] The percentage change in cell growth was calculated by normalizing the measured values to the absorbance values of the zero plate (=0%) and the absorbance of the untreated (0 W) cells (=100%). The IC50 values were determined by means of a four parameter fit.

SMILES | IC50
CCOP(=O)(CC(C)C)c1cc(N2CCOC[C@H]2C)nc2c(-c3ccn[nH]3)nccc12 (stereo partly drawn) [Example 144, ethyl isobutyl{2-[(3R)-3-methylmorpholin-4-yl]-8-(1H-pyrazol-5-yl)-1,7-naphthyridin-4-yl}phosphinate] | > 3000 nM

Same assay, conditions: Homo sapiens, 96 h, read-out: Inhibition of HeLa cell proliferation, HeLa cells, 4 days incubation

SMILES | IC50
CCC(O)(CC)c1cc(N2CCOC[C@H]2C)nc2c(-c3ccn[nH]3)nccc12 [Example 129, 3-{2-[(3R)-3-methylmorpholin-4-yl]-8-(1H-pyrazol-5-yl)-1,7-naphthyridin-4-yl}pentan-3-ol] | 686 nM
C[C@@H]1COCCN1c1cc(-c2cncc(Cl)c2)c2ccnc(-c3ccn[nH]3)c2n1 [Example 130, 4-(5-chloropyridin-3-yl)-2-[(3R)-3-methylmorpholin-4-yl]-8-(1H-pyrazol-5-yl)-1,7-naphthyridine] | 374 nM
C[C@@H]1COCCN1c1cc(-c2ccc(F)cc2N)c2ccnc(-c3ccn[nH]3)c2n1 [Example 131, 5-fluoro-2-{2-[(3R)-3-methylmorpholin-4-yl]-8-(1H-pyrazol-5-yl)-1,7-naphthyridin-4-yl}aniline] | 349 nM
C[C@@H]1COCCN1c1cc(-c2cccc(S(C)(=O)=O)c2F)c2ccnc(-c3ccn[nH]3)c2n1 [Example 132, 4-[2-fluoro-3-(methylsulfonyl)phenyl]-2-[(3R)-3-methylmorpholin-4-yl]-8-(1H-pyrazol-5-yl)-1,7-naphthyridine] | 507 nM
C[C@@H]1COCCN1c1cc(-c2ccnn2C2COC2)c2ccnc(-c3ccn[nH]3)c2n1 [Example 133, 2-[(3R)-3-methylmorpholin-4-yl]-4-[1-(oxetan-3-yl)-1H-pyrazol-5-yl]-8-(1H-pyrazol-5-yl)-1,7-naphthyridine] | 1070 nM
C[C@@H]1COCCN1c1cc(-c2ccc(N3CCCC3)cc2F)c2ccnc(-c3ccn[nH]3)c2n1 [Example 134, 4-[2-fluoro-4-(pyrrolidin-1-yl)phenyl]-2-[(3R)-3-methylmorpholin-4-yl]-8-(1H-pyrazol-5-yl)-1,7-naphthyridine] | 1530 nM
COCc1noc(C)c1-c1cc(N2CCOC[C@H]2C)nc2c(-c3ccn[nH]3)nccc12 [Example 135, 4-[3-(methoxymethyl)-5-methyl-1,2-oxazol-4-yl]-2-[(3R)-3-methylmorpholin-4-yl]-8-(1H-pyrazol-5-yl)-1,7-naphthyridine] | 1820 nM
Cc1nnc(-c2cc(N3CCOC[C@H]3C)nc3c(-c4ccn[nH]4)nccc23)o1 [Example 136, 2-[(3R)-3-methylmorpholin-4-yl]-4-(5-methyl-1,3,4-oxadiazol-2-yl)-8-(1H-pyrazol-5-yl)-1,7-naphthyridine] | 575 nM
C[C@@H]1COCCN1c1cc(N=S(C)(=O)c2ccc(F)cc2)c2ccnc(-c3ccn[nH]3)c2n1 (stereo partly drawn) [Example 138, 4-{[(4-fluorophenyl)(methyl)oxido-λ^6-sulfanylidene]amino}-2-[(3R)-3-methylmorpholin-4-yl]-8-(1H-pyrazol-5-yl)-1,7-naphthyridine] | 619 nM
C[C@@H]1COCCN1c1cc(N=S(C)(=O)c2ccccc2F)c2ccnc(-c3ccn[nH]3)c2n1 (stereo partly drawn) [Example 139, 4-{[(2-fluorophenyl)(methyl)oxido-λ^6-sulfanylidene]amino}-2-[(3R)-3-methylmorpholin-4-yl]-8-(1H-pyrazol-5-yl)-1,7-naphthyridine] | 1370 nM
C[C@@H]1COCCN1c1cc(P(C)(C)=O)c2ccnc(-c3ccn[nH]3)c2n1 [Example 142, 4-(dimethylphosphoryl)-2-[(3R)-3-methylmorpholin-4-yl]-8-(1H-pyrazol-5-yl)-1,7-naphthyridine] | 1590 nM
CCP(=O)(CC)c1cc(N2CCOC[C@H]2C)nc2c(-c3ccn[nH]3)nccc12 [Example 143, 4-(diethylphosphoryl)-2-[(3R)-3-methylmorpholin-4-yl]-8-(1H-pyrazol-5-yl)-1,7-naphthyridine] | 543 nM
CC(C)Cn1nccc1-c1cc(N2CCOC[C@H]2C)nc2c(-c3ccn[nH]3)nccc12 [Example 146, 4-(1-isobutyl-1H-pyrazol-5-yl)-2-[(3R)-3-methylmorpholin-4-yl]-8-(1H-pyrazol-5-yl)-1,7-naphthyridine] | 1110 nM
C[C@@H]1COCCN1c1cc(-c2cnc(S(C)(=O)=O)c(F)c2)c2ccnc(-c3ccn[nH]3)c2n1 [Example 147, 4-[5-fluoro-6-(methylsulfonyl)pyridin-3-yl]-2-[(3R)-3-methylmorpholin-4-yl]-8-(1H-pyrazol-5-yl)-1,7-naphthyridine] | 953 nM
C[C@@H]1COCCN1c1cc(N2CCOCC2)nc2c(-c3ccn[nH]3)nccc12 [Example 148, 4-[(3R)-3-methylmorpholin-4-yl]-2-(morpholin-4-yl)-8-(1H-pyrazol-5-yl)-1,7-naphthyridine] | 805 nM
C[C@@H]1COCCN1c1cc(-c2cccc(F)n2)c2ccnc(-c3ccn[nH]3)c2n1 [Example 152, 4-(6-fluoropyridin-2-yl)-2-[(3R)-3-methylmorpholin-4-yl]-8-(1H-pyrazol-5-yl)-1,7-naphthyridine] | 671 nM
CCn1cnc(-c2cc(N3CCOC[C@H]3C)nc3c(-c4ccn[nH]4)nccc23)c1 [Example 153, 4-(1-ethyl-1H-imidazol-4-yl)-2-[(3R)-3-methylmorpholin-4-yl]-8-(1H-pyrazol-5-yl)-1,7-naphthyridine] | 759 nM
C[C@@H]1COCCN1c1cc(-c2cccnc2N)c2ccnc(-c3ccn[nH]3)c2n1 [Example 155, 3-{2-[(3R)-3-methylmorpholin-4-yl]-8-(1H-pyrazol-5-yl)-1,7-naphthyridin-4-yl}pyridin-2-amine] | 959 nM

SMILES | IC50
C[C@@H]1COCCN1c1cc(-c2ccn(CCF)n2)c2ccnc(-c3ccn[nH]3)c2n1 [Example 158, 4-[1-(2-fluoroethyl)-1H-pyrazol-3-yl]-2-[(3R)-3-methylmorpholin-4-yl]-8-(1H-pyrazol-5-yl)-1,7-naphthyridine] | 328 nM
C[C@@H]1COCCN1c1cc(-c2ccnn2CCF)c2ccnc(-c3ccn[nH]3)c2n1 [Example 159, 4-[1-(2-fluoroethyl)-1H-pyrazol-5-yl]-2-[(3R)-3-methylmorpholin-4-yl]-8-(1H-pyrazol-5-yl)-1,7-naphthyridine] | 61.6 nM
C[C@@H]1COCCN1c1cc(-c2ccn(CCO)n2)c2ccnc(-c3ccn[nH]3)c2n1 [Example 160, 2-(3-{2-[(3R)-3-methylmorpholin-4-yl]-8-(1H-pyrazol-5-yl)-1,7-naphthyridin-4-yl}-1H-pyrazol-1-yl)ethanol] | 451 nM
C[C@@H]1COCCN1c1cc(-c2ccn(CC(C)(C)O)n2)c2ccnc(-c3ccn[nH]3)c2n1 [Example 161, 2-methyl-1-(3-{2-[(3R)-3-methylmorpholin-4-yl]-8-(1H-pyrazol-5-yl)-1,7-naphthyridin-4-yl}-1H-pyrazol-1-yl)propan-2-ol] | 588 nM
C[C@@H]1CN(c2cc(N3CCOCC3)nc3c(-c4ccn[nH]4)nccc23)CCO1 [Example 162, 4-[(2R)-2-methylmorpholin-4-yl]-2-(morpholin-4-yl)-8-(1H-pyrazol-5-yl)-1,7-naphthyridine] | 1220 nM
C[C@H]1CN(c2cc(N3CCOCC3)nc3c(-c4ccn[nH]4)nccc23)CCO1 [Example 170, 4-[(2S)-2-methylmorpholin-4-yl]-2-(morpholin-4-yl)-8-(1H-pyrazol-5-yl)-1,7-naphthyridine] | 2410 nM
C[C@@H]1COCCN1c1cc(OC(F)F)c2ccnc(-c3ccn[nH]3)c2n1 [Example 172, 4-(difluoromethoxy)-2-[(3R)-3-methylmorpholin-4-yl]-8-(1H-pyrazol-5-yl)-1,7-naphthyridine] | 2100 nM
CC(C)(O)c1cc(N2CCOCC2)nc2c(-c3ccn[nH]3)nccc12 [Example 173, 2-[2-(morpholin-4-yl)-8-(1H-pyrazol-5-yl)-1,7-naphthyridin-4-yl]propan-2-ol] | > 3000 nM
O=C1CN(c2cc(N3CCOCC3)nc3c(-c4ccn[nH]4)nccc23)CCN1 [Example 176, 4-[2-(morpholin-4-yl)-8-(1H-pyrazol-5-yl)-1,7-naphthyridin-4-yl]piperazin-2-one] | 2520 nM
CP(C)(=O)c1cc(N2CCOCC2)nc2c(-c3ccn[nH]3)nccc12 [Example 177, 4-(dimethylphosphoryl)-2-(morpholin-4-yl)-8-(1H-pyrazol-5-yl)-1,7-naphthyridine] | > 3000 nM
C[C@@H]1CN(c2cc(N3CCOCC3)nc3c(-c4ccn[nH]4)nccc23)C[C@H](C)N1 [Example 179, 4-[(cis)-3,5-dimethylpiperazin-1-yl]-2-(morpholin-4-yl)-8-(1H-pyrazol-5-yl)-1,7-naphthyridine] | > 3000 nM
c1cc(-c2nccc3c(N4C[C@@H]5C[C@H]4CO5)cc(N4CCOCC4)nc23)[nH]n1 [Example 185, 2-(morpholin-4-yl)-4-[(1S,4S)-2-oxa-5-azabicyclo[2.2.1]hept-5-yl]-8-(1H-pyrazol-5-yl)-1,7-naphthyridine] | > 3000 nM
CSCc1cc(N2CCOC[C@H]2C)nc2c(-c3ccn[nH]3)nccc12 [Example 186, 2-[(3R)-3-methylmorpholin-4-yl]-4-[(methylsulfanyl)methyl]-8-(1H-pyrazol-5-yl)-1,7-naphthyridine] | 789 nM
C[C@@H]1COCCN1c1cc(C2(O)CCCCC2)c2ccnc(-c3ccn[nH]3)c2n1 [Example 189, 1-{2-[(3R)-3-methylmorpholin-4-yl]-8-(1H-pyrazol-5-yl)-1,7-naphthyridin-4-yl}cyclohexanol] | 1010 nM
CS(=O)(=NC#N)c1ccc(-c2cc(N3CCOCC3)nc3c(-c4ccn[nH]4)nccc23)cc1 (stereo not drawn) [Example 191, (methyl{4-[2-(morpholin-4-yl)-8-(1H-pyrazol-5-yl)-1,7-naphthyridin-4-yl]phenyl}oxido-λ^6-sulfanylidene)cyanamide] | 2120 nM
C[C@@H]1COCCN1c1cc(-c2[nH]nnc2C2CC2)c2ccnc(-c3ccn[nH]3)c2n1 [Example 194, 4-(4-cyclopropyl-1H-1,2,3-triazol-5-yl)-2-[(3R)-3-methylmorpholin-4-yl]-8-(1H-pyrazol-5-yl)-1,7-naphthyridine] | 892 nM
CC[S+]([O-])c1cc(N2CCOCC2)nc2c(-c3ccn[nH]3)nccc12 (stereo not drawn) [Example 195, 4-ethylsulfinyl-2-(morpholin-4-yl)-8-(1H-pyrazol-5-yl)-1,7-naphthyridine] | 3010 nM
